Common to all, as to format: cell-based, rat
The test system of one assay is ADSC. The assay is described as follows: EdU labeling of ADSC in vitro. As for the experimental part: FIG. 9 depicts dosage effect. EdU was added to ADSC at 0, 10, 20, and 50 μM. Cellular location was identified by DAPI staining of the nucleus (which would be blue if color photos were used). EdU was detected by Alexa 594 (which would be red if color photos were used).
FIG. 10 show the results of a time-course study. ADSC were labeled with 10 μM EdU and then split at 1 day, 4 days, 7 days, 14 days, and 21 days. […] Higher magnification (1000×) of cells at day 21 is shown in panel C.
ADSCs were grown on glass coverslips in DMEM supplemented with 10% bovine calf serum, penicillin, and streptomycin. For dosage effect, EdU was added to the culture media at 0, 10, 20 and 50 μM. Twenty-four hours later, cells were washed with PBS followed by addition of regular culture media (FIG. 9). For time-course study, ADSC were labeled with 10 μM EdU and then split at 1 day, 4 days, 7 days, 14 days and 21 days (FIG. 10).
After methanol fixation, cells were washed twice with PBS and then incubated in 3% BSA in PBS followed by 0.5% Triton® X-100 in PBS for 20 minutes at room temperature. The cells were then incubated with freshly made Click-it reaction cocktail (Invitrogen) for 30 minutes at room temperature in the dark. Cells were counterstained with DAPI, mounted in standard mounting media and imaged by fluorescence microscopy.

Assay [1] relates to RADSC-1 cells. The assay is described as follows: Effect of FGFR inhibitor on ADSC endothelial differentiation (LDL-uptake). The conditions noted are these: EGM2 or FGF2/vitamin C-supplemented EBM2, in the presence of PD173074. Here is the method: RADSC-1 cells were grown in EGM2 or EBM2 supplemented with FGF2 and vitamin C in the presence or absence of FGFR inhibitor PD173074. The cells were then assayed for LDL-uptake. […] RADSC-1 cells were also grown in VEGF/vitamin C-supplemented EBM2 for the purpose of excluding the involvement of VEGF signaling, as PD173074 is known to have a weak inhibitory effect on VEGF receptor. Experiments were repeated 3 times.

The subject of assay [2] is RADSC-1 cells. Nature of the assay: LDL-uptake of ADSC grown in subtraction or addition EGM2/EBM2 media. Particulars: for ADSC's LDL-uptake ability on omission of the factor from EGM2: one week in subtracted EGM2 medium; for ADSC's LDL-uptake ability in EBM2 supplemented with the factor: one week in addition medium. From the text:
Each partially supplemented EGM2 is indicated by the omitted factor; for example, “-FGF” denotes EGM2 without FGF2. Experiments were repeated 3 times.
Experiments were repeated 3 times.
EGM2 medium is supplied by the manufacturer in the form of a basal medium (EBM2) and individual vials of supplemental factors. […] Specifically, we prepared “subtraction” EGM2 media by omitting one supplemental factor at a time.

In the case of `C#Cc1cn([C@H]2C[C@H](O)[C@@H](CO)O2)c(=O)[nH]c1=O` [EdU, 5-ethynyl-2-deoxyuridine], the “EdU signal in the positively labeled cells” value with ADSC (10 μM EdU, 1 to 21 days, P<0.01) is reported as “decreased with time”. Further, the “cells EdU-labeled” value in the assay on ADSC (EdU 10, 20, 50 μM, regardless of concentration) is on record as “approximately 50%”.
Consider `CCN(CC)CCCCNc1ncc2cc(-c3cc(OC)cc(OC)c3)c(NC(=O)NC(C)(C)C)nc2n1` [PD173074], for which, in the assay on RADSC-1 cells [1], the “acquisition of LDL-uptake ability” value is listed as “unable to do so”.
As for `C[C@]12CCC(=O)C=C1CC[C@@H]1[C@@H]2[C@@H](O)C[C@@]2(C)[C@H]1CC[C@]2(O)C(=O)CO` [hydrocortisone], the “ADSC's LDL-uptake ability on omission of the factor from EGM2” value (from here on “ADSC's LDL-uptake ability on omission”) in the assay with RADSC-1 cells [2] is “essentially no effect”.
For the molecule `O=C1O[C@H]([C@@H](O)CO)C(O)=C1O` [vitamin C], in the assay with RADSC-1 cells [2], the “ADSC's LDL-uptake ability in EBM2 supplemented with the factor” value was “still somewhat effective, but at a much reduced level” and the “ADSC's LDL-uptake ability on omission” value is “greatly diminished”.
On to “EGF: growth factor, supplemental factor of EGM2 medium”, for which, in the assay with RADSC-1 cells [2], the “ADSC's LDL-uptake ability on omission” value was “essentially no effect”.
Regarding “FGF2: growth factor, supplemental factor of EGM2 medium”, in the assay on RADSC-1 cells [2], the “ADSC's LDL-uptake ability in EBM2 supplemented with the factor” value is “still effective, albeit at a reduced level” and the “ADSC's LDL-uptake ability on omission” value is “greatly diminished”.
With VEGF, the “ADSC's LDL-uptake ability on omission” value in the assay on RADSC-1 cells [2] is listed as “essentially no effect”.
The same measure, in the same setting: the entry for heparin is “essentially no effect”.

Values taken from patent US10426800B2, “Adipose tissue-derived stem cells for veterinary use” (CELL4VET CORPORATION, priority 2008, dated 2019).
